Measured values: patent publication US11471528B2, “Methods for using extracellular adenosine inhibitors and adenosine receptor inhibitors to enhance immune response and inflammation” (The Government of the United States of America as …, priority 2001, dated 2022)

Legend:
[1] = tested on: NF-kB-regulated pro-inflammatory cytokines (TNFα, IL-12p40); assay: Cytokine mRNA in spleen of CpG-activated mice (RNase protection assay); format: in vivo; details: C57BL/6 mice, 10 mg/kg i.p. 15 minutes before CpG, FIGS. 8A and 8B
Procedure: Mutant (A2aR^−/−) or wild-type mice were injected (i.p.) with 20 nmol CpG oligonucleotide (5′-T*C*[…]*A*T*G*C*T-3′, asterisk means phosphorothioate. SEQ ID NO. 1). This toll-receptor activating CpG DNA preparation stimulates the immune system. After one hour, mRNA was extracted from spleenocytes and analyzed for cytokine gene expression using an RNase protection assay with commercial templates (mCK-2b and mCK-3b, Pharmingen, San Diego, Calif.).

CMS4 tumor cells = assay: CMS4 lung tumors with antigen-specific CTL immunotherapy; format: in vivo; details: BALB/c mice, CMS4 i.v., CTL on day 10; ZM241385 10 mg/kg/day i.p. or caffeine 0.1% w/v in drinking water; FIGS. 12A-C
Description: BALB/c mice were inoculated i.v. with CMS4 tumor cells (Methylcholanthrene-induced sarcoma, 2.5×10^5 cells) on day zero to induce the formation of lung tumors. […] The lung tumors were subsequently examined on days 17, day 18 and day 24, by sacrificing the mice and evaluating their lungs for the number and size of metastasis by visual inspection.

B16 melanoma cells = assay: B16 melanoma tumor growth; format: in vivo, mice; details: daily i.p., ZM241385 0.2 mg/mouse, caffeine 0.4 mg/mouse, start 28 days after tumor cells; FIG. 14
Description: […] (immunocompromised nude mice; or immunocompetent C57BL/6 mice) were inoculated subcutaneously with B16 melanoma cells (American Type Culture Collection, Manassas, Va.), or B16-H2-Kd transfected tumor cells (increases the immunogenicity of the cells) on day zero to induce the formation of melanomas. The treatment with adenosine receptor antagonists started 28 days after injection of tumor cells, when the tumor reached 7-9 mm in diameter.
[…]. The delay in tumor growth was greater in immunocompetent C57BL/6 mice, and less so in immunocompromised nude mice. However, as the tumor increases in size, both antagonists slow down tumor growth even in immunocompromised animals. […] In addition, adenosine receptor antagonists appear to improve both anti-tumor immunity and preventing or decreasing angiogenesis.

[2] = tested on: anti-TNP-specific immunoglobulins; assay: TNP-KLH vaccination, serum anti-TNP-specific immunoglobulins (ELISA); format: in vivo, mice; details: for IgG2: day 7, co-injected with TNP-KLH; for serum levels of anti-TNP-specific IgG1: seven days, versus control
Procedure: The antigen was prepared for injection as follows. DNP-KLH (1.0 mg/ml, Biosearch Technologies, Inc. catalog no. T-5060-5) was prepared in PBS (e.g. dissolve 4.0 mg of purified DNP-KLH in PBS and raise volume to 4.0 ml). Complete Freund's Adjuvant (2.0 ml, CFA; Sigma F-5881) was vortexed and mixed with 2.0 ml of the TNP-KLH solution at 4° C. The CFA/KLH mixture was drawn into a 3-ml glass syringe with a 19-gauge needle. The syringe was attached to a double-ended locking hub connector or a plastic 3-way stopcock. An empty 2-ml glass syringe was attached to the other end and the mixture forced back and forth from one end to the other repeatedly. When the mixture was white and homogeneous, the connector or stopcock was disconnected, a 25 gauge needle attached, and tested for emulsion by placing a drop on the surface of 50 ml of cold water in a 100-ml beaker. The drop should hold together; if not, repeat mixing. […] Samples of blood were obtained by retro-orbital bleeding at 7, 14, and 21 days after TNP-KLH and theophylline injection. Serum levels of anti-TNP-specific IgG1, IgG2a, IgG2b, IgG3, and IgM were estimated using an ELISA kit (Sigma) according to the manufacturer's instructions.

[3] = tested on: activated macrophages and T cells; assay: Secretion of IL-12 and IFN-γ by activated macrophages and T cells in vitro (ELISA); format: cell-based; details: FIG. 1B
IkB = IkB phosphorylation in macrophages after CpG (Western blot); format: in vivo; details: C57BL/6 mice, 5 nMol CpG i.v., CGS21680 2 mg/kg, macrophages after 20 minutes
Procedure: After 20 minutes, macrophages were isolated as described above, and subjected to Western blot analysis using Ab that recognize IkB and Ab can distinguish the phosphorylated form of IkB (IkB-P).

[4] = co-injected with TNP-KLH, about 1 mg/kg

Question: Which “mRNA expression of NF-kB-regulated pro-inflammatory cytokines” value [1] does the source give for `Nc1nc(NCCc2ccc(O)cc2)nc2nc(-c3ccco3)nn12` [ZM241385] here?
Answer: higher expression of NF-kB-regulated pro-inflammatory cytokines

Question: And the “number of metastatic nodules in the lung” value (CMS4 tumor cells)?
Answer: decrease in the number of metastatic nodules

Question: And the tumor growth (B16 melanoma cells)?
Answer: tumor retardation that became significant after 3-7 days of treatment

Question: What about the IgG2 [2] of the same compound?
Answer: improved

Question: What about the “serum levels of anti-TNP-specific IgG1” value [2, 4] of the same compound?
Answer: markedly increased

Question: For `CCNC(=O)[C@H]1O[C@@H](n2cnc3c(N)nc(NCCc4ccc(CCC(=O)O)cc4)nc32)[C@H](O)[C@@H]1O` [CGS21680], which “secretion of IFN-γ” value [3] is on record?
Answer: inhibited secretion

Question: What about the “secretion of IL-12” value [3] of the same compound?
Answer: inhibited secretion

Question: And the “phosphorylation of IkB” value (IkB)?
Answer: decreased or inhibited

Question: With `O=C(Cc1ccccc1)Nc1nc2ccc(Cl)cc2c2nc(-c3ccco3)nn12` [MRS1220] as the compound, how does the IgG2 [2] read?
Answer: improved

Question: What about the “serum levels of anti-TNP-specific IgG1” value [2, 4] of the same compound?
Answer: markedly increased

Question: Which “serum levels of anti-TNP-specific IgG1” value ([2]; co-injected i.p. with TNP-KLH, FIG. 15) does the source give for `Cn1c(=O)c2[nH]cnc2n(C)c1=O` [theophylline] here?
Answer: markedly increased

Question: And the “serum levels of anti-TNP-specific IgG1” value ([2]; co-injected subcutaneously with TNP-KLH)?
Answer: improvement of antibody production

Question: And the “serum levels of anti-TNP-specific IgG1” value ([2]; co-injected subcutaneously with TNP-KLH, listed as theophyllin)?
Answer: markedly increased
